Test results: patent publication US20220380341A1, “INHIBITORS OF HIV-1 NEF FOR THE TREATMENT OF HIV DISEASE” (priority 2018, published 2022)
Read-outs that look alike come from different tables or passages of the source.

Assays:
[1] = biological target: HIV-1 NefNL4-3 (Human immunodeficiency virus type 1 group M subtype B, UniProt P03406, A33V/T15A/T51N/V11I); experiment: Surface plasmon resonance binding to recombinant full-length Nef (NL4-3); settings: for RU30/RUNef (extent of binding): response units at 30 μM relative to Nef immobilized on the SPR chip
[2] = test system: HIV-1NL4-3; experiment: HIV-1 infectivity assay in TZM-bl reporter cell line (LTR-luciferase, 48 h); type: cell-based; settings: for inhibition at 1 µM: Human immunodeficiency virus 1, TZM-bl
Summary of the method: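 TZM-bl cells infected with HIV-1NL4-3 ± compound (1 μM), luciferase measured at 48 h. Normalization: DMSO/wild-type = 0% inhibition, DMSO/Nef-defective = 100% of Nef-dependent effect.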

[3] = test system: TZM-bl cell line; type: cell-based; settings: 1 μM
Summary of the method: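 Read-out is luciferase from an integrated HIV-1 LTR reporter in TZM-bl cells, 48 h after HIV-1NL4-3 infection in the presence of 1 μM compound. Scale set by DMSO-treated wild-type-infected cells (0%) and Nef-defective virus (100% Nef-dependent effect). Cell Titer Blue measures cytotoxicity without virus.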

[4] = KD, M, Table 4, SPR fit 1:1 Langmuir, KD = koff/kon
[5] = Table 4, 1:1 Langmuir fit, T = 1/koff
[6] = 1.0 μM, TZM-bl reporter cell line, Table 4, read-out: % Infectivity Inhibition
[7] = 48 h, Table 1, TZM-bl cells, 1 μM, 48 h, 100% = Nef-defective HIV-1, read-out: HIV-1 Infectivity % Inhibition Norm. to Δ-Nef @ 1 μM
[8] = Nef NL4-3 Binding, SPR 2-state fitting KD, Table 1, 2-step induced-fit model
[9] = KD, M, Table 4, SPR fit 2-step induced fit, KD = koff/kon × koff2/(koff2 + kon2)
[10] = Table 4, 2-step induced fit, T = 1/koff2
[11] = read-out: Nef NL4-3 Binding, SPR 1:1 or 2-site fitting KD2, Table 1, 2-site fit, second component

SMILES | Kd [1] | Kd [1, 4] | T, minutes (residence time) [1, 5] | RU30/RUNef (extent of binding) [1] | inhibition at 1 µM [2, 6] | inhibition at 1 µM [2, 7] | % Cell Viability ([3]; human) | Percent Viability @ 1 μM (TZM-bl cells) ([3]; human) | Kd ([1]; Nef NL4-3 Binding, SPR 1:1 or 2-site fitting KD2, Table 1, 2-site fit, second component) | Kd [1, 8] | Kd ([1]; Table 1, 1:1 Langmuir fit where the KD2 cell says '1 to 1 fitting', else 2-site fit, read-out: Nef NL4-3 Binding, SPR 1:1 or 2-site fitting KD1) | HIV-1 Infectivity % Inhibition Norm. to Δ-Nef @ 1 μM ([2]; Table 1, TZM-bl cells, 1 μM, 48 h, 100% = Nef-defective HIV-1) | Percent Viability @ 1 μM (TZM-bl cells) ([3]; Table 1, uninfected TZM-bl cells, Cell Titer Blue) | Nef NL4-3 Binding, SPR 1:1 or 2-site fitting KD1 ([1]; Table 1, 1:1 Langmuir fit where the KD2 cell says '1 to 1 fitting', else 2-site fit) | Kd [1, 9] | T, minutes (residence time) [1, 10] | Kd [1, 11]
CC(C)(C)OC(=O)N1CCN(Cc2nn(-c3nc4ccccc4[nH]3)c(O)c2CCc2ccc(F)cc2)CC1 [Compound I-211, tert-butyl 4-{[1-(1H-1,3-benzodiazol-2-yl)-4-[2-(4-fluorophenyl)ethyl]-5-hydroxy-1H-pyrazol-3-yl]methyl}piperazine-1-carboxylate] | 7220 nM | 7220 nM | 1.65E + 00 minutes | 2.89E- 03 | 0% | -19.4% | 100% | 103.5% |  |  |  |  |  |  |  |  | 
CC(C)(C)OC(=O)NCc1nn(-c2nc3ccccc3[nH]2)c(O)c1CCc1ccc(F)cc1 [Compound I-212, tert-butyl N-{[1-(1H-1,3-benzodiazol-2-yl)-4-[2-(4-fluorophenyl)ethyl]-5-hydroxy-1H-pyrazol-3-yl]methyl}carbamate] | 538 nM |  |  |  |  | 50.9% |  | 92.9% | 1480 nM | 2320 nM |  |  |  |  |  |  | 
CC(C)(C)OC(=O)NC1(c2nn(-c3nc4ccccc4[nH]3)c(O)c2CCc2ccc(F)cc2)CCOCC1 [Compound I-213, tert-butyl N-{4-[1-(1H-l,3-benzodiazol-2-yl)-4-[2-(4-fluorophenyl)ethyl]-5-hydroxy-1H-pyrazol-3-yl]oxan-4-yl}carbamate] |  |  |  |  |  |  |  |  |  |  | 1600 nM | −4.6% | 97.6% |  |  |  | 
CC(C)(C)OC(=O)N1CCCC(Cc2nn(-c3nc4ccccc4[nH]3)c(O)c2CCc2ccc(F)cc2)C1 (centres unmarked) [Compound I-214, tert-butyl 3-{[1-(1H-1,3-benzodiazol-2-yl)-4-[2-(4-fluorophenyl)ethyl]-5-hydroxy-1H-pyrazol-3-yl]methyl}piperidine-1-carboxylate] | 20.8 nM |  |  |  |  | -5.5% |  | 99.9% |  |  |  |  |  |  |  |  | 
CC(C)(C)OC(=O)N1CCC(c2nn(-c3nc4cccc(Cl)c4[nH]3)c(O)c2CCc2ccc(F)cc2)CC1 [Compound I-217, tert-butyl 4-[1-(7-chloro-1H-1,3-benzodiazol-2-yl)-4-[2-(4-fluorophenyl)ethyl]-5-hydroxy-1H-pyrazol-3-yl]piperidine-1-carboxylate] |  |  |  |  |  | 0.1% |  | 104.9% |  |  |  |  |  | No Interaction |  |  | 
CC(C)(C)OC(=O)N1CCC(CCc2c(C3CC3)nn(-c3nc4cc(Cl)ccc4[nH]3)c2O)CC1 [Compound I-218, tert-butyl 4-{2-[1-(5-chloro-1H-1,3-benzodiazol-2-yl)-3-cyclopropyl-5-hydroxy-1H-pyrazol-4-yl]ethyl}piperidine-1-carboxylate] | 1120 nM |  |  | 1.32E- 02 | 0% | -7% | 97.9% | 97.9% |  | 692 nM |  |  |  |  | 692 nM | 1.02E + 01 minutes | 
CC(C)(C)OC(=O)N1CCC(c2nn(-c3nc4cc(F)c(F)cc4[nH]3)c(O)c2CCc2ccc(F)cc2)CC1 [Compound I-219, tert-butyl 4-[1-(5,6-difluoro-1H-1,3-benzodiazol-2-yl)-4-[2-(4-fluorophenyl)ethyl]-5-hydroxy-1H-pyrazol-3-yl]piperidine-1-carboxylate] |  |  |  | 4.76E- 03 | 100% | 109% | 79.2% | 79.2% |  | 49.3 nM |  |  |  |  | 49.3 nM | 4.93E + 02 minutes | 3290 nM
CC(C)(C)OC(=O)N1CCC(c2nn(-c3nc4cccnc4[nH]3)c(O)c2CCc2ccc(F)cc2)CC1 [Compound I-220, tert-butyl 4-{4-[2-(4-fluorophenyl)ethyl]-5-hydroxy-1-{3H-imidazo[4,5-b]pyridin-2-yl}-1H-pyrazol-3-yl}piperidine-1-carboxylate] | 283 nM |  |  | 7.24E- 03 | 9.8% | 9.8% | 100% | 103.6% |  | 3950 nM |  |  |  |  | 3950 nM | 6.92E + 00 minutes | 3820 nM
CC(C)(C)OC(=O)N1CCC(c2nn(-c3nc4ccncc4[nH]3)c(O)c2CCc2ccc(F)cc2)CC1 [Compound I-221, tert-butyl 4-{4-[2-(4-fluorophenyl)ethyl]-5-hydroxy-1-{3H-imidazo[4,5-c]pyridin-2-yl}-1H-pyrazol-3-yl}piperidine-1-carboxylate] | 12800 nM |  |  |  |  | 10.6% |  | 103.1% |  |  |  |  |  |  |  |  | 
Oc1c(CCc2ccc(F)cc2)c(-c2ccc(C(F)(F)F)cn2)nn1-c1nc2cccnc2[nH]1 [Compound I-302, 4-[2-(4-fluorophenyl)ethyl]-1-{3H-imidazo[4,5-b]pyridin-2-yl}-3-[5-(trifluoromethyl)pyridin-2-yl]-1H-pyrazol-5-ol] | 3610 nM | 3610 nM | 8.82E + 00 minutes | 1.66E- 03 | 0% | -2.4% | 98.9% | 98.9% |  |  |  |  |  |  |  |  | 
Cc1ccn(CCc2c(-c3ccc(C(F)(F)F)cc3)nn(-c3nc4cccnc4[nH]3)c2O)n1 [Compound I-303, 1-{3H-imidazo[4,5-b]pyridin-2-yl}-4-[2-(3-methyl-1H-pyrazol-1-yl)ethyl]-3-[4-(trifluoromethyl)phenyl]-1H-pyrazol-5-ol] | 396 nM | 396 nM | 9.47E + 01 minutes | 3.06E- 03 | 40.1% | 40.6% | 98.3% | 98.3% |  |  |  |  |  |  |  |  | 
Oc1c(CCC2CCOCC2)c(-c2cccc(F)c2)nn1-c1nc2cccnc2[nH]1 [Compound I-304, 3-(3-fluorophenyl)-1-{3H-imidazo[4,5-b]pyridin-2-yl}-4-[2-(oxan-4-yl)ethyl]-1H-pyrazol-5-ol] | 138 nM |  |  | 5.25E- 03 | 0% | -2% | 98.7% | 98.7% |  | 3150 nM |  |  |  |  | 3150 nM | 1.25E + 01 minutes | 40300 nM
CS(=O)(=O)c1cccc(-c2nn(-c3nc4cccnc4[nH]3)c(O)c2CCC2CCOCC2)c1 [Compound I-305, 1-{3H-imidazo[4,5-b]pyridin-2-yl}-3-(3-methanesulfonylphenyl)-4-[2-(oxan-4-yl)ethyl]-1H-pyrazol-5-ol] | 744 nM | 744 nM | 1.13E + 01 minutes | 2.13E- 03 | 59.3% | 59.3% | 96.8% | 96.8% |  |  |  |  |  |  |  |  | 
O=C(OCc1ccccc1)N1CCC(c2nn(-c3nc4cccnc4[nH]3)c(O)c2CCc2ccc(F)cc2)CC1 [Compound I-306, benzyl 4-{4-[2-(4-fluorophenyl)ethyl]-5-hydroxy-1-{3H-imidazo[4,5-b]pyridin-2-yl}-1H-pyrazol-3-yl}piperidine-1-carboxylate] | 13.6 nM |  |  | 9.61E- 03 | 0% | -5.2% | 95.7% | 95.7% |  | 731 nM |  |  |  |  | 731 nM | 3.52E + 01 minutes | 5430 nM
Oc1c(CCc2ccc(F)cc2)c(CCCc2ccc(F)cc2)nn1-c1nc2cccnc2[nH]1 [Compound I-307, 4-[2-(4-fluorophenyl)ethyl]-3-[3-(4-fluorophenyl)propyl]-1-{3H-imidazo[4,5-b]pyridin-2-yl}-1H-pyrazol-5-ol] | 890 nM | 890 nM | 1.14E + 01 minutes | 6.84E- 03 | 47.5% | 47.5% | 98.2% | 98.2% |  |  |  |  |  |  |  |  | 
O=C(OCc1ccccc1)N1CCC(c2nn(-c3nc4ccncc4[nH]3)c(O)c2CCc2ccc(F)cc2)CC1 [Compound I-310, benzyl 4-{4-[2-(4-fluorophenyl)ethyl]-5-hydroxy-1-{3H-imidazo[4,5-c]pyridin-2-yl}-1H-pyrazol-3-yl}piperidine-1-carboxylate] | 50.2 nM | 50.2 nM | 3.56E + 02 minutes | 2.36E- 03 | 36.6% | 36.6% | 100% | 105.6% |  |  |  |  |  |  |  |  | 
